For this test, the target named is T1, HIV-Protease (Human immunodeficiency virus type 1 group M subtype B, UniProt P04585).
T1 construct: Max-Planck-Institut für Molekulare Genetik, Berlin
Put plainly: HIV protease test (cleavage of heptapeptide Ser-Phe-Asn-Phe-Pro-Gln-Ile, HPLC quantification of Ser-Phe-Asn-Phe). It is filed as biochemical. The conditions noted are these: 2 h, 37°C; for IC50: cloned HIV protease, pH ca. 6,0; for activity at 100 µM / Restakt. bei 10^-4 M: residual enzyme activity at 10^-4 M inhibitor, 100 % = mean of runs without inhibitor, pH ca. 6,0, 1 % DMSO; for activity at 100 µM: read-out: Restakt. bei 10^-4 M; for Restakt. bei 10^-4 M: 100 µM. The text has this: Als synthetisches Substrat ist ein Heptapeptid der Sequenz Ser-Phe-Asn-Phe-Pro-Gln-Ile geeignet. Diese Sequenz tritt im natürlichen Substrat der Protease auf und liefert bei der autokatalytischen Freisetzung nach einer Phe-Pro-Spaltung den N-terminalen Beginn der Proteasesequenz (Pro-Gln-Ile...).
Es wird eine klonierte HIV-Protease (Max-Planck-Institut für Molekulare Genetik, Berlin) benutzt. [drawing 5]
Von den Reaktionsprodukten wird Ser-Phe-Asn-Phe zur Abtrennung und quantitativen Bestimmung mittels HPLC herangezogen.
Nach 2 Stunden bei 37°C werden die Ansätze mit 225 µl HPLC-Elutionsmittel (s.u.) gestoppt. Etwa 150 µl des zentrifugierten Überstands (Eppendorf-Zentrifuge) werden in Mikrovials gefüllt. Das Injektionsvolumen für die HPLC-Trennung beträgt 20 µl. Ser-Phe-Asn-Phe wird durch Vergleich mit einem externen Standard bekannter Konzentration (0,5 µg/ 20 µl) quantitativ bestimmt und stellt die Meßgröße der Enzymaktivität (µg Tetrapeptid pro 20 µl Meßprobe) dar. Bezugswert (= 100 % Enzymaktivität) ist der Mittelwert aus 2 oder mehr Ansätzen ohne Inhibitor. Als Standard-Inhibitor wird Pepstatin A (10⁻⁴ oder 10⁻⁵ M) verwendet.
• a) Substratlösung: 2 mg Ser-Phe-Asn-Phe-Pro-Gln-Ile werden in 1 ml MGTE 15-Puffer gelöst. • b) Testsubstanzen: Diese werden 10⁻² oder 10⁻³ M in Dimethylsulfoxid (DMSO) gelöst und 1 : 40 mit MGTE 15-Puffer verdünnt; 10 µl dieser Lösung werden pro Ansatz verwendet; die Endkonzentration des Präparates beträgt 10⁻⁴ bzw. 10⁻⁵ M; die DMSO-Konzentration in allen Testansätzen ist 1 %. Für IC₅₀-Bestimmungen wird das Präparat, ausgehend von 10⁻² M, mit 100 % DMSO in der geeigneten Weise verdünnt. • c) Proteaselösung: Das Enzym wird mit MGTE 25-Puffer auf eine geeignete Konzentration verdünnt. • d) MGTE 15/25-Puffer 20 mM Morpholinoethansulfonsäure (MES) 15 (25) % (w/v) Glyzerin 0,1 % (v/v) Triton® X 100 (vgl. Merck Index 10, 6601) 5 mM EDTA 0,5 M NaCl 1 mM Dithiothreit (nur für MGTE 25) 1 mM Phenylmethylsulfonylfluorid (PMSF) Der pH-Wert soll ca. 6,0 betragen. • e) HPLC-Elutionsmittel: Eine 0,1 M Phosphorsäure-Lösung wird mit Triethylamin auf pH 2,5 eingestellt. Aus dieser Lösung wird ein Phosphorsäure-Acetonitril-Gemisch mit 22,6 Gewichts-Prozent Acetonitril hergestellt.
Säule: Radial Pak LC Cartridge, 8 mm/C18, 5 µ (der Fa. Waters, USA). Fluß: 1 ml/min Detektoreinstellung: 215 nm, 0,08 AU Zeit pro Analyse: 12 min; Retentionszeiten: Heptapeptid ca. 9,5 min, Tetrapeptid ca. 5,2 min Laufmittel: 77,4 Gew.-% 0,1 M H₃PO₄/pH 2,5 22,6 Gew.-% Acetonitril

A word on the IC50: it is the concentration that inhibits the measured activity by half.

In the case of `CCC[C@H](NC(=O)C(Cc1cccc2ccccc12)CS(=O)(=O)C(C)(C)C)C(=O)NC(CC(CC)CC)B1OC(C)(C)C(C)(C)O1` (stereo partly shown) [Beispiel 48, [3-t-Butylsulfonyl,2-(1-naphthylmethyl)]propionyl-Nva-[3-Ethyl,1-(4,4,5,5-tetramethyl-1,3,2-dioxaborolan-2-yl)]pentylamid], the midpoint of inhibition, the IC50, lay at 60 µM and the activity at 100 µM worked out at 32%.
`CCC[C@H](NC(=O)C(Cc1cccc2ccccc12)CS(=O)(=O)C(C)(C)C)C(=O)NC(CC(C)C)B1OC(C)(C)C(C)(C)O1` (stereo partly shown) [Beispiel 41, [3-t-Butylsulfonyl,2-(1-naphthylmethyl)]propionyl-Nva-[3-methyl,1-(4,4,5,5-tetramethyl-1,3,2-dioxaborolan-2-yl)]butylamid]: the activity at 100 µM is 35%.
As for “(3-t-Butylsulfonyl)propionyl-Nva-(1-Naphthylmethyl, dihydroxyboryl)methylamid [Beispiel 27]”, the “Restakt. bei 10^-4 M” value came out at 77%.
Same read-out and setting: next, “[3-t-Butylsulfonyl,2-(2-thienylmethyl)]propionyl-Nva-(Cyclohexylmethyl,dihydroxyboryl)methylamid [Beispiel 30]”: 52%.
The same measure, in the same setting: next, “Iva-Phe-Nva-[Cyclohexylmethyl,[(N-B)-(2,2′-iminodiethanolato)-boryl]]methylamid [Beispiel 6]”: 41%; “Iva-Phe-His-(Cyclooctylmethyl,dihydroxyboryl)methylamid [Beispiel 24]”: 78%.
With `CC1(C)OB(C(Cc2ccccc2)NC(=O)[C@H](CC(N)=O)NC(=O)C(Cc2ccccc2)CS(=O)(=O)C(C)(C)C)OC1(C)C` (stereo partly shown) [Beispiel 45, (2-Benzyl,3-t-butylsulfonyl)propionyl-Asn-[Benzyl,(4,4,5,5-tetramethyl-1,3,2-dioxaborolan-2-yl)]methylamid], the IC50 is 100 µM and the activity at 100 µM stood at 49%.
Take `CCC[C@H](NC(=O)C(Cc1cccs1)CS(=O)(=O)C(C)(C)C)C(=O)NC(CC1CCCCCC1)B1OC(C)(C)C(C)(C)O1` (stereo partly shown) [Beispiel 40, [3-t-Butylsulfonyl,2-(2-thienylmethyl)]propionyl-Nva-[Cycloheptylmethyl,(4,4,5,5-tetramethyl-1,3,2-dioxaborolan-2-yl)]methylamid]: the activity at 100 µM is 46%.
Regarding `CCC[C@H](NC(=O)[C@H](Cc1ccccc1)NC(=O)CC(C)C)C(=O)NC(Cc1cccc2ccccc12)B1OC(C)(C)C(C)(C)O1` (stereo partly drawn) [Beispiel 10, Iva-Phe-Nva-[(1-Naphthylmethyl),(4,4,5,5-tetramethyl-1,3,2-dioxaborolan-2-yl)]methylamid], the activity at 100 µM worked out at 77%.
For the molecule “(2-Benzyl,3-t-butylsulfonyl)propionyl-Val-(Cyclohexylmethyl,dihydroxyboryl)methylamid [Beispiel 28]”, the IC50 came out at 7 µM and the “Restakt. bei 10^-4 M” value is on record as 7%.
The like results for “(2-Benzyl,3-t-butylsulfonyl)propionyl-Nva-(Cyclopentylmethyl,dihydroxyboryl)methylamid [Beispiel 32]” were, in that order, 40 µM and 25%.
Take `CC(C)CC(=O)N[C@@H](Cc1ccccc1)C(=O)N[C@@H](Cc1c[nH]cn1)C(=O)NC(CC1CCCCC1)B1OC(C)(C)C(C)(C)O1` (stereo partly drawn) [Beispiel 3, Iva-Phe-His-[Cyclohexylmethyl,(4,4,5,5-tetramethyl-1,3,2-dioxaborolan-2-yl)]methylamid]: the activity at 100 µM was found to be 61%.
With “Iva-Phe-Nva-(Cyclooctylmethyl,dihydroxyboryl)methylamid [Beispiel 20]”, the “Restakt. bei 10^-4 M” value came to 27%.
`CCC[C@H](NC(=O)[C@H](Cc1ccccc1)NC(=O)CC(C)C)C(=O)NC(CC1CCCCC1)B1OC(C)(C)C(C)(C)O1` (stereo partly drawn) [Beispiel 1, Iva-Phe-Nva-[Cyclohexylmethyl,(4,4,5,5-tetramethyl-1,3,2-dioxaborolan-2-yl)]methylamid]: the IC50 stood at 40 µM and the activity at 100 µM was determined as 28%.
On to `CCC[C@H](NC(=O)[C@H](Cc1ccccc1)NC(=O)CC(C)C)C(=O)NC(CC1CCCCCCC1)B1OC(C)(C)C(C)(C)O1` (stereo partly shown) [Beispiel 11], for which the activity at 100 µM is 96%.
On the same count and under the same terms, next, `CCC[C@H](NC(=O)C(Cc1ccccc1)CS(=O)(=O)C(C)(C)C)C(=O)NC(Cc1ccccc1)B1OC(C)(C)C(C)(C)O1` (stereo partly shown) [Beispiel 44]: 72%; `CC(C)CC(=O)N[C@@H](Cc1ccccc1)C(=O)N(C)[C@@H](Cc1ccccc1)C(=O)NC(CC1CCCCC1)B1OC(C)(C)C(C)(C)O1` (stereo partly shown) [Beispiel 16]: 70%.
For the molecule `CC1(C)OB(C(CC2CCCCC2)NC(=O)[C@H](CC(N)=O)NC(=O)C(Cc2cccs2)CS(=O)(=O)C(C)(C)C)OC1(C)C` (stereo partly shown) [Beispiel 52, [3-t-Butylsulfonyl, 2-(2-thienylmethyl)]propionyl-Asn-[cyclohexylmethyl,(4,4,5,5-tetramethyl-1,3,2-dioxaborolan-2-yl)]-methylamid], half-maximal inhibition (IC50) was put at 100 µM and the activity at 100 µM worked out at 49%.
Turning to `CC(C)CC(=O)N[C@@H](Cc1cccs1)C(=O)N[C@@H](Cc1c[nH]cn1)C(=O)NC(CC1CCCCC1)B1OC(C)(C)C(C)(C)O1` (stereo partly shown) [Beispiel 4], the activity at 100 µM was determined as 96%.
Consider “[3-t-Butylsulfonyl,2,(2-thienylmethyl)]propionyl-Thi-(Cyclohexylmethyl,dihydroxyboryl)methylamid [Beispiel 31]”, for which the “Restakt. bei 10^-4 M” value was determined as 59%.
`CC(C)[C@H](NC(=O)C(Cc1ccccc1)CS(=O)(=O)C(C)(C)C)C(=O)NC(CC1CCCCC1)B1OC(C)(C)C(C)(C)O1` (stereo partly shown) [Beispiel 38, (2-Benzyl,3-t-butylsulfonyl)propionyl-Val-[Cyclohexylmethyl,(4,4,5,5-tetramethyl-1,3,2-dioxaborolan-2-yl)]methylamid]: the IC50 worked out at 9 µM and the activity at 100 µM worked out at 11%.
As for `CCCC(NC(=O)C(Cc1ccccc1)NC(=O)CC(C)C)C(=O)NC(CC1CCCCC1)B1OC2CC3CC(C3(C)C)C2(C)O1` (stereo not drawn) [Beispiel 12, Iva-Phe-Nva-[Cyclohexylmethyl, (-)-Pinandioxyboryl]methylamid], the activity at 100 µM turned out to be 64%.
Consider `CC(C)CC(=O)N[C@@H](Cc1ccccc1)C(=O)N[C@@H](Cc1c[nH]cn1)C(=O)NC(CC1CCCCCC1)B1OC(C)(C)C(C)(C)O1` (stereo partly drawn) [Beispiel 18, Iva-Phe-His-[Cycloheptylmethyl,(4,4,5,5-tetramethyl-1,3,2-dioxaborolan-2-yl)]methylamid], for which the activity at 100 µM was found to be 36%.
In the case of `CCC[C@H](NC(=O)C(Cc1ccccc1)CS(=O)(=O)C(C)(C)C)C(=O)NC(B1OC(C)(C)C(C)(C)O1)C1CCCCCC1` (stereo partly shown) [Beispiel 46], the IC50 amounted to 40 µM and the activity at 100 µM turned out to be 45%.
For “Iva-Phe-Nva-[Cycloundecylmethyl, (4,4,5,5-tetramethyl-1,3,2-dioxaborolan-2-yl)]methylamid [Beispiel 13]”, the “Restakt. bei 10^-4 M” value stood at 35%.
Regarding `CCC[C@H](NC(=O)[C@H](Cc1ccccc1)NC(=O)CC(C)C)C(=O)NC(CC1CCCCCC1)B1OC(C)(C)C(C)(C)O1` (stereo partly drawn) [Beispiel 15, Iva-Phe-Nva- (Cycloheptylmethyl,(4,4,5,5-tetramethyl-1,3 2-dioxaborolan-2-yl)]methylamid], the activity at 100 µM amounted to 86%.

For the origin of these results see patent EP0354522A1, “Use of alpha-aminoboronic acid derivatives in prevention and treatement of viral diseases” (HOECHST AKTIENGESELLSCHAFT, priority 1988, dated 1990).
